Entries after “also recorded” stand apart in the source; their conditions may differ. Where two headings read alike, the source gives them in different places.
Experiments:
[1] = cited from earlier work
[2] = cited from earlier work; remark: listed apart in the source
in vitro = conditions: human, plasma
[3] = Enzymolysis kinetics experiment of compounds in plasma; conditions: for half-life at 97.6 µM: human, plasma; for Content of the compound %: 37° C.
[4] = High temperature stability study of compounds (60° C.); assay type: physicochemical; conditions: in the dark; for Ketorolac (%): related substance
Description: Test protocol: the compounds prepared in the present disclosure were placed in a colorless and transparent vial, placed in the dark at a high temperature (60° C.), and were sampled for day 0, day 5 and day 10, respectively, and the purity of the compounds and the change of the related substance (ketorolac) were determined.

[5] = human, 97.6 µM
[6] = By-product toxicity test (metabolic byproducts in the human body); conditions: for Metabolic by-products in human body: by the metabolic pathways of the compounds in the human body; for Toxicity: toxicity of the metabolic by-products in human body
[7] = oral administration and intramuscular injection

| SMILES | half-life at 97.6 µM (in vitro) | Total main peak purity (%) ([4]; Day 0) | Total main peak purity (%) ([4]; Day 5) | Total main peak purity (%) ([4]; Day 10) | Ketorolac (%) ([4]; Day 0) | Ketorolac (%) ([4]; Day 5) | Ketorolac (%) ([4]; Day 10) | Content of ketorolac % ([5]; 0 min) | Content of the compound % ([5]; 0 min) | Content of ketorolac % ([5]; 15 min) | Content of the compound % ([5]; 15 min) | Content of ketorolac % ([5]; 30 min) | Content of the compound % ([5]; 30 min) | Content of ketorolac % ([5]; 60 min) | Content of the compound % ([5]; 60 min) | Content of ketorolac % ([5]; 120 min) | Content of the compound % ([5]; 120 min) | Metabolic by-products in human body [6] | Toxicity [6] | also measured |
| --- | --- | --- | --- | --- | --- | --- | --- | --- | --- | --- | --- | --- | --- | --- | --- | --- | --- | --- | --- | --- |
| O=C(c1ccccc1)c1ccc2n1CCC2C(=O)O (racemic) [Ketorolac, (±)-5-benzoyl-2,3-dihydro-1H-pyrrolizine-1-carboxylic acid] |  |  |  |  |  |  |  |  |  |  |  |  |  |  |  |  |  |  |  | elimination half-life ([1]; elderly patients): 360 to 420 min; binding rate to plasma protein ([1]; in vivo): more than 99%; distribution volume ([1]; in vivo): 0.1 to 0.3 L/kg; elimination half-life ([1]; in vivo): 240 to 360 min; original drug and metabolites excreted with the urine ([1]; in vivo): about 90%; total clearance rate ([1]; in vivo): 0.5 mL/min/kg; effective treatment plasma concentration [1, 7]: 0.3 to 5 µg/mL; peak concentration time of the plasma concentration [1, 7]: 20 to 60 min; elimination half-life ([1]; renal insufficiency patients): 540 to 600 min; analgesic activity relative to aspirin ([2]; times that of aspirin): 800 times; analgesic activity relative to indomethacin ([2]; times that of indomethacin): 60 times; analgesic activity relative to morphine ([2]; times that of morphine): 0.4 times |
| CC(=O)OC(C)OC(=O)C(C)c1ccc(-c2ccccc2)c(F)c1 (stereo not drawn) [FPA, flurbiprofen axetil, reference compound] | 40.8 min |  |  |  |  |  |  |  |  |  |  |  |  |  |  |  |  |  |  | degradation / metabolic rate in human plasma (in words) ([3]; human plasma, up to 120 min): could be metabolized faster |
| CC(C)OC(=O)OC(C)OC(=O)C1CCn2c(C(=O)c3ccccc3)ccc21 (stereo not drawn) [N2] | 38.6 min | 95.58% | 95.21% | 94.82% | 0.03% | 0.04% | 0.05% | 1.050 ± 0.079% | 98.950 ± 3.765% | 8.860 ± 0.426% | 88.103 ± 2.289% | 20.993 ± 0.561% | 72.813 ± 2.707% | 34.590 ± 1.381% | 47.510 ± 1.739% | 59.790 ± 2.019% | 12.573 ± 0.260% | Acetaldehyde and isopropyl alcohol | low toxicity of byproducts; also recorded: relatively low |  |
| CC(OC(=O)C(C)C)OC(=O)C1CCn2c(C(=O)c3ccccc3)ccc21 (stereo not drawn) [N6] |  | 91.56% | 90.94% | 90.22% | 0.14% | 0.13% | 0.17% |  |  |  |  |  |  |  |  |  |  | Acetaldehyde and isobutyric acid |  |  |
| CC(OC(=O)C1CCn2c(C(=O)c3ccccc3)ccc21)OC(=O)C(C)(C)C (stereo not drawn) [N7] |  | 90.83% | 88.66% | 88.59% | 0.18% | 0.25% | 0.32% |  |  |  |  |  |  |  |  |  |  | Acetaldehyde and pivalic acid | Pivalic acid is more toxic |  |
| CCC(=O)OC(CC)OC(=O)C1CCn2c(C(=O)c3ccccc3)ccc21 (stereo not drawn) [N8] | 16.9 min | 93.15% | 93.30% | 92.34% | 0.18% | 0.42% | 0.96% | 0% | 100 ± 1.782% | 19.140 ± 1.467% | 69.713 ± 6.985% | 36.277 ± 3.301% | 42.467 ± 2.983% | 53.130 ± 2.171% | 8.777 ± 0.560% | 65.997 ± 3.446% | 0% |  | low toxicity of byproducts; also recorded: relatively low |  |
| CC(OC(=O)OC1CCCCC1)OC(=O)C1CCn2c(C(=O)c3ccccc3)ccc21 (stereo not drawn) [N10] |  | 96.36% | 94.28% | 94.41% | 0.05% | 0.23% | 0.37% |  |  |  |  |  |  |  |  |  |  | Acetaldehyde and cyclohexanol | relatively low toxicity of byproducts |  |
| CC(C)OC(=O)C1CCn2c(C(=O)c3ccccc3)ccc21 (stereo not drawn) [N11, reference compound] | 347 min |  |  |  |  |  |  | 0% | 99.700 ± 2.928% | 0% | 99.813 ± 4.881% | 0% | 89.807 ± 2.538% | 2.270 ± 0.328% | 83.490 ± 9.087% |  |  |  |  |  |
| CCOC(=O)OC(C)OC(=O)C1CCn2c(C(=O)c3ccccc3)ccc21 (stereo not drawn) [N12] | 14.8 min | 93.84% | 93.59% | 93.36% | 0.03% | 0.07% | 0.07% | 2.033 ± 0.342% | 97.967 ± 6.878% | 34.203 ± 3.165% | 56.277 ± 3.890% | 53.297 ± 1.296% | 25.590 ± 1.131% | 76.623 ± 10.483% | 5.997 ± 0.976% | 87.973 ± 4.045% | 0% | Acetaldehyde and acetic acid | low toxicity of byproducts; also recorded: relatively low |  |
| CCOC(=O)OC(CC)OC(=O)C1CCn2c(C(=O)c3ccccc3)ccc21 (stereo not drawn) [N15] |  | 96.30% | 95.87% | 95.59% | 0.08% | 0.09% | 0.14% | 1.727 ± 1.502% | 99.560 ± 2.324% | 23.933 ± 1.119% | 76.800 ± 2.423% | 50.917 ± 1.868% | 46.680 ± 2.229% | 83.957 ± 3.139% | 12.760 ± 1.133% | 96.910 ± 3.848% | 0.893 ± 0.051% |  |  | half-life at 97.6 µM [3]: 16.9 min |
| CCC(OC(=O)OC(C)C)OC(=O)C1CCn2c(C(=O)c3ccccc3)ccc21 (stereo not drawn) [N16] | 31.6 min | 97.33% | 96.50% | 96.16% | 0.05% | 0.07% | 0.07% | 0% | 100 ± 4.001% | 9.847 ± 2.479% | 82.710 ± 1.909% | 28.653 ± 0.277% | 65.987 ± 0.506% | 56.793 ± 2.096% | 35.437 ± 1.960% | 70.443 ± 4.274% | 7.047 ± 0.374% |  |  |  |
| CC(OC(=O)C1CCn2c(C(=O)c3ccccc3)ccc21)OC(=O)C1CCn2c(C(=O)c3ccccc3)ccc21 (stereo not drawn) [N22] |  |  |  |  |  |  |  |  |  |  |  |  |  |  |  |  |  | Acetaldehyde | relatively low toxicity of byproducts | metabolic rates (in words) ([3]; summary statement, metabolized in a human body): slow metabolic rates |
| CCCCCCCCOC(=O)OC(C)OC(=O)C1CCn2c(C(=O)c3ccccc3)ccc21 (stereo not drawn) [N26] | 177 min |  |  |  |  |  |  |  |  | 0% | 100% | 3.89 ± 0.61% | 95.48 ± 1.56% | 8.60 ± 0.33% | 89.20 ± 1.67% | 24.34 ± 0.90% | 68.99 ± 1.45% |  | n-octanol is more toxic | Content of ketorolac % ([5]; 1 min): 0%; Content of the compound % ([5]; 1 min): 100% |
| CCCCCCC(=O)OC(C)OC(=O)C1CCn2c(C(=O)c3ccccc3)ccc21 (stereo not drawn) [N27] |  |  |  |  |  |  |  |  |  |  |  |  |  |  |  |  |  | Acetaldehyde and n-heptanoic acid | low | Content of the compound % ([3]; human plasma, 1 min): 100%; Content of the compound % ([3]; human plasma, 15 min): 100%; Content of the compound % ([3]; human plasma, 30 min): 90.63 ± 1.81%; Content of the compound % ([3]; human plasma, 60 min): 63.89 ± 1.20%; Content of the compound % ([3]; human plasma, 120 min): 35.75 ± 1.46%; half-life at 97.6 µM [3]: 73.9 min |
